Positions count from the first letter of the chain named.
How the values were obtained:
Assay in all cases: Kd determination
Type in all cases: binding
FLT3 (D835Y) = target: T1, FLT3 (D835Y) (Homo sapiens, UniProt P36888, D835Y)
T1 sequence (P36888 27-993 D835Y): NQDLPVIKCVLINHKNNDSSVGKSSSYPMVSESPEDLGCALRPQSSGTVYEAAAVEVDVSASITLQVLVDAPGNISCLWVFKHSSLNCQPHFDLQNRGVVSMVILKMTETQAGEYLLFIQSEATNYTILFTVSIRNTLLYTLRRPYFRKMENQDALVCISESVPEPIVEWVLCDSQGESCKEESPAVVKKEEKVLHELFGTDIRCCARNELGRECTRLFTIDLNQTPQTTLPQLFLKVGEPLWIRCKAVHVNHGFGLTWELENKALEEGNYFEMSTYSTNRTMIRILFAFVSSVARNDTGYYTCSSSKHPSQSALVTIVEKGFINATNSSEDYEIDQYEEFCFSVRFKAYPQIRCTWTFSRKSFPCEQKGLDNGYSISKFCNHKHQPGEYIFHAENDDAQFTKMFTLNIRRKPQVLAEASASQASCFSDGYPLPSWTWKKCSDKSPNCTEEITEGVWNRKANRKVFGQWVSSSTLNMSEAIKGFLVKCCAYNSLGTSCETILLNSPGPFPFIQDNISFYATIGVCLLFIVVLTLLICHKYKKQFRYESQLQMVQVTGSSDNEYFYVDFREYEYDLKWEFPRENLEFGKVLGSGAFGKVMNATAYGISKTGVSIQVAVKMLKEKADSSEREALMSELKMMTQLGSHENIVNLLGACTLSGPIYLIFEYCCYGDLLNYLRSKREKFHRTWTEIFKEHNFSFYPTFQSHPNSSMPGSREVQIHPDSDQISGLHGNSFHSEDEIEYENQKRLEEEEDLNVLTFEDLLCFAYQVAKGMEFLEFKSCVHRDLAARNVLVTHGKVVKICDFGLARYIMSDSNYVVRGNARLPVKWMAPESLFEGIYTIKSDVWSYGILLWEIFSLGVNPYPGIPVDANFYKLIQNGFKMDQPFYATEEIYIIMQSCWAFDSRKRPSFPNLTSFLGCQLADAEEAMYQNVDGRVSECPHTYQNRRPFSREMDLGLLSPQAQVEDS

FLT3 (ITD) = target: T2, FLT3 (ITD) (Homo sapiens, UniProt P36888, ITD)
T2 sequence (P36888 564-993): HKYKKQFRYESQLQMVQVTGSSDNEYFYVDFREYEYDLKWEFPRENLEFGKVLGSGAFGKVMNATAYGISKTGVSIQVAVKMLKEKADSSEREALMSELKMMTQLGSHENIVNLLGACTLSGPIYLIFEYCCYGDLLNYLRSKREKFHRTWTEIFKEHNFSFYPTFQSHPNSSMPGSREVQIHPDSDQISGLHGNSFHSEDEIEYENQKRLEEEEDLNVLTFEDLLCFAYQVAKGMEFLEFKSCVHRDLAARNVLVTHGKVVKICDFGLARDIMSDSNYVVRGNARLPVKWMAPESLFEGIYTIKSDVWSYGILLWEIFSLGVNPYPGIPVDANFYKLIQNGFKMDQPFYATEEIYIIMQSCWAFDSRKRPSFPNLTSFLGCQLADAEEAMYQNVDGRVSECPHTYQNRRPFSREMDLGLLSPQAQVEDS

FLT3 (N841I) = target: T3, FLT3 (N841I) (Homo sapiens, UniProt P36888, N841I)
T3 sequence (P36888 27-993 N841I): T1 sequence (P36888 27-993 D835Y) with Y809D, N815I

Kd (FLT3 (D835Y)) [nM] | Kd (FLT3 (ITD)) [nM] | Kd (FLT3 (N841I)) [nM] | Compound
0.59 | 1.4 | 11 | CC(C)Nc1ccnc(Nc2cccc(-c3cccnc3)c2)n1 [Compound 5e, N^4-Isopropyl-N^2-(3-(pyridin-3-yl)phenyl)pyrimidine-2,4-diamine]
13 | 31 | 48 | c1cncc(-c2cccc(Nc3nccc(NC4CCCCC4)n3)c2)c1 [Compound 1, N^4-Cyclohexyl-N^2-(3-(pyridin-3-yl)phenyl)pyrimidine-2,4-diamine]
> 10000 | > 10000 | > 10000 | CC(C)Nc1ccnc(Nc2ccccc2-c2ccccc2)n1 [Compound 6a, N^2-([1,1′-Biphenyl]-2-yl)-N^4-isopropylpyrimidine-2,4-diamine]
